Experimental data taken from patent US9340600B2 (Indiana University Research and Technology Corporation, priority 2012, dated 2016).
*1 amine or outer side, *2 acyl side, *3 side chain or, on linkers, in order; H or OH if unused. Where a SMILES comes first, the peptide text is derived from it. Where no end group is shown, it is not given here. Side-chain parts run from the residue outwards. [ ]: non-standard residue; d: D form. The star is where a group is joined. γGlu = O=C(O)[C@H](CCC(=O)[*:2])N[*:1]; Palmitoyl = CCCCCCCCCCCCCCCC(=O)*; Aib = CC(C)(N)C(=O)O

How the values were obtained:
Type in all cases: cell-based
[1] = target: T1, glucagon receptor (Homo sapiens, UniProt P47871); test: cAMP induction, firefly luciferase-based reporter assay in HEK293 cells co-transfected with glucagon receptor; settings: EC50 at Glucagon Receptor
T1 construct: expressed in transfected cells; host or cells: HEK293
T1 sequence (P47871 26-477): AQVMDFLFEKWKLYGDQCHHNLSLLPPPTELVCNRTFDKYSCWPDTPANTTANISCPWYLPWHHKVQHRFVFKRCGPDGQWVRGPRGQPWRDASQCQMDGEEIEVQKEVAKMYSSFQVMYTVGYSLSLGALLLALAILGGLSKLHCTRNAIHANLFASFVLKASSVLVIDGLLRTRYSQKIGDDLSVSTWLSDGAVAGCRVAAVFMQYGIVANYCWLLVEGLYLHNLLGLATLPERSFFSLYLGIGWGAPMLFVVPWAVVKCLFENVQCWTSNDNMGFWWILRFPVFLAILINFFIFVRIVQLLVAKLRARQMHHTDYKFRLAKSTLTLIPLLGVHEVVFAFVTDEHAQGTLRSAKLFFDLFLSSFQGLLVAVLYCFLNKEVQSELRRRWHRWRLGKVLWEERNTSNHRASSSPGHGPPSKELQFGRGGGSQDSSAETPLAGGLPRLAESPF
Description: (§1) This example describes an exemplary method of testing the biological activity of the peptides of the present disclosures, which method involves assaying cAMP synthesis.

[2] = target: T2, GLP-1 receptor (Homo sapiens, UniProt P43220); test: cAMP induction, firefly luciferase-based reporter assay in HEK293 cells co-transfected with GLP-1 receptor; settings: EC50 at GLP-1 Receptor
T2 construct: expressed in transfected cells; host or cells: HEK293
T2 sequence (P43220 24-463): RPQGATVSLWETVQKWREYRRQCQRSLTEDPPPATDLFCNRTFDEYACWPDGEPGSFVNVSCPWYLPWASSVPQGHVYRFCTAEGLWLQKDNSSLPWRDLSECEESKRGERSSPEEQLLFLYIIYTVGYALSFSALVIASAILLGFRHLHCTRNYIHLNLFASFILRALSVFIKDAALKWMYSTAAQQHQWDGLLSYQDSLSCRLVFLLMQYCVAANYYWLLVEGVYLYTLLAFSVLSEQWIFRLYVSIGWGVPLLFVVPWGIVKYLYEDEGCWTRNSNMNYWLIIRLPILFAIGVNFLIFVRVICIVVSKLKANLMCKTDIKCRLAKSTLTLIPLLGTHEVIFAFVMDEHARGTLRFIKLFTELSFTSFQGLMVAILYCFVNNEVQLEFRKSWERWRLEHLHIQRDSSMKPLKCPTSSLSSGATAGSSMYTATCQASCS
Description: as §1

[3] = target: T3, GIP receptor (Homo sapiens, UniProt P48546); test: cAMP induction, firefly luciferase-based reporter assay in HEK293 cells co-transfected with GIP receptor; settings: EC50 at GIP Receptor
T3 construct: expressed in transfected cells; host or cells: HEK293
T3 sequence (P48546 22-466): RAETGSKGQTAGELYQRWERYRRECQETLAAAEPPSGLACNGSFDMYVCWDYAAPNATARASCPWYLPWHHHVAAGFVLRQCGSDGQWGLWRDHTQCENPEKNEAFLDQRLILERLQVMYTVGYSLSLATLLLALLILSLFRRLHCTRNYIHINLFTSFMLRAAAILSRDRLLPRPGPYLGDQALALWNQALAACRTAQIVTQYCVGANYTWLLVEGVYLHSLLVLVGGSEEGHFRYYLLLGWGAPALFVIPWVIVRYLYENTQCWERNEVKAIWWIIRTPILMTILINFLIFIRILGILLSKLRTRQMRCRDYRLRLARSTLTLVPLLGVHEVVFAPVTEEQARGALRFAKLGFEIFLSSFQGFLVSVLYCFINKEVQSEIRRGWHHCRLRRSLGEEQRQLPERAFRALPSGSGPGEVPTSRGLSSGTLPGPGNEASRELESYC
Description: as §1

[4] = Table 2, analogs of SEQ ID NO: 18 varying at positions 16-21
[5] = Table 3, analogs of SEQ ID NO: 18 varying at position 3

Compound	EC50 [1, 4] [pM]	EC50 ([2]; Table 1) [pM]	EC50 [2, 4] [pM]	EC50 [3, 4] [pM]	also measured
CCCCCCCCCCCCCCCC(=O)N[C@@H](CCC(=O)NCCCC[C@H](NC(=O)[C@H](CC(=O)O)NC(=O)[C@H](CO)NC(=O)[C@@H](NC(=O)[C@H](Cc1ccccc1)NC(=O)[C@@H](NC(=O)CNC(=O)[C@H](CCC(N)=O)NC(=O)C(C)(C)NC(=O)[C@@H](N)Cc1c[nH]cn1)[C@@H](C)O)[C@@H](C)O)C(=O)N[C@@H](CO)C(=O)N[C@@H](CCCCN)C(=O)N[C@@H](Cc1ccc(O)cc1)C(=O)N[C@@H](CC(C)C)C(=O)N[C@@H](CCC(=O)O)C(=O)N[C@@H](CCC(=O)O)C(=O)N[C@@H](CCCNC(=N)N)C(=O)N[C@@H](C)C(=O)N[C@@H](C)C(=O)N[C@@H](CCC(N)=O)C(=O)N[C@@H](CCC(=O)O)C(=O)N[C@@H](Cc1ccccc1)C(=O)N[C@H](C(=O)N[C@@H](CCC(N)=O)C(=O)N[C@@H](Cc1c[nH]c2ccccc12)C(=O)N[C@@H](CC(C)C)C(=O)N[C@@H](CC(C)C)C(=O)N[C@@H](CCC(=O)O)C(=O)NCC(=O)NCC(=O)N1CCC[C@H]1C(=O)N[C@@H](CO)C(=O)N[C@@H](CO)C(=O)NCC(=O)N[C@@H](C)C(=O)N1CCC[C@H]1C(=O)N1CCC[C@H]1C(=O)N1CCC[C@H]1C(=O)N[C@@H](CO)C(N)=O)C(C)C)C(=O)O [compound 18] (H-H[Aib]QGTFTSDK([γGlu-Palmitoyl])SKYLEERAAQEFVQWLLEGGPSSGAPPPS-NH2)	5	8	10	4	EC50 [1, 5]: 5 pM; EC50 [3, 5]: 4 pM
CCCCCCCCCCCCCCCC(=O)N[C@@H](CCC(=O)NCCCC[C@H](NC(=O)[C@H](CC(=O)O)NC(=O)[C@H](CO)NC(=O)[C@@H](NC(=O)[C@H](Cc1ccccc1)NC(=O)[C@@H](NC(=O)CNC(=O)[C@H](CCC(N)=O)NC(=O)C(C)(C)NC(=O)[C@@H](N)Cc1c[nH]cn1)[C@@H](C)O)[C@@H](C)O)C(=O)N[C@@H](CO)C(=O)N[C@@H](CCCCN)C(=O)N[C@@H](Cc1ccc(O)cc1)C(=O)N[C@@H](CC(C)C)C(=O)N[C@@H](CC(=O)O)C(=O)N[C@@H](CCC(=O)O)C(=O)N[C@@H](CCCNC(=N)N)C(=O)N[C@@H](C)C(=O)N[C@@H](C)C(=O)N[C@@H](Cc1c[nH]cn1)C(=O)N[C@@H](CC(=O)O)C(=O)N[C@@H](Cc1ccccc1)C(=O)N[C@H](C(=O)N[C@@H](CCC(N)=O)C(=O)N[C@@H](Cc1c[nH]c2ccccc12)C(=O)N[C@@H](CC(C)C)C(=O)N[C@@H](CC(C)C)C(=O)N[C@@H](CC(=O)O)C(=O)NCC(=O)NCC(=O)N1CCC[C@H]1C(=O)N[C@@H](CO)C(=O)N[C@@H](CO)C(=O)NCC(=O)N[C@@H](C)C(=O)N1CCC[C@H]1C(=O)N1CCC[C@H]1C(=O)N1CCC[C@H]1C(=O)N[C@@H](CO)C(N)=O)C(C)C)C(=O)O [compound 19] (H-H[Aib]QGTFTSDK([γGlu-Palmitoyl])SKYLDERAAHDFVQWLLDGGPSSGAPPPS-NH2)	12	–	18	15	–
CCCCCCCCCCCCCCCC(=O)N[C@@H](CCC(=O)NCCCC[C@H](NC(=O)[C@H](CC(=O)O)NC(=O)[C@H](CO)NC(=O)[C@@H](NC(=O)[C@H](Cc1ccccc1)NC(=O)[C@@H](NC(=O)CNC(=O)[C@H](CCC(N)=O)NC(=O)C(C)(C)NC(=O)[C@@H](N)Cc1c[nH]cn1)[C@@H](C)O)[C@@H](C)O)C(=O)N[C@@H](CO)C(=O)N[C@@H](CCCCN)C(=O)N[C@@H](Cc1ccc(O)cc1)C(=O)N[C@@H](CC(C)C)C(=O)N[C@@H](CC(=O)O)C(=O)N[C@@H](CCC(=O)O)C(=O)N[C@@H](CCCNC(=N)N)C(=O)N[C@@H](C)C(=O)N[C@@H](C)C(=O)N[C@@H](CCCCN)C(=O)N[C@@H](CC(=O)O)C(=O)N[C@@H](Cc1ccccc1)C(=O)N[C@H](C(=O)N[C@@H](CCC(N)=O)C(=O)N[C@@H](Cc1c[nH]c2ccccc12)C(=O)N[C@@H](CC(C)C)C(=O)N[C@@H](CC(C)C)C(=O)N[C@@H](CC(=O)O)C(=O)NCC(=O)NCC(=O)N1CCC[C@H]1C(=O)N[C@@H](CO)C(=O)N[C@@H](CO)C(=O)NCC(=O)N[C@@H](C)C(=O)N1CCC[C@H]1C(=O)N1CCC[C@H]1C(=O)N1CCC[C@H]1C(=O)N[C@@H](CO)C(N)=O)C(C)C)C(=O)O [compound 20] (H-H[Aib]QGTFTSDK([γGlu-Palmitoyl])SKYLDERAAKDFVQWLLDGGPSSGAPPPS-NH2; N-terminus assumed)	6	–	10	5	–
CCCCCCCCCCCCCCCC(=O)N[C@@H](CCC(=O)NCCCC[C@H](NC(=O)[C@H](CC(=O)O)NC(=O)[C@H](CO)NC(=O)[C@@H](NC(=O)[C@H](Cc1ccccc1)NC(=O)[C@@H](NC(=O)CNC(=O)[C@H](CCC(N)=O)NC(=O)C(C)(C)NC(=O)[C@@H](N)Cc1c[nH]cn1)[C@@H](C)O)[C@@H](C)O)C(=O)N[C@@H](CO)C(=O)N[C@@H](CCCCN)C(=O)N[C@@H](Cc1ccc(O)cc1)C(=O)N[C@@H](CC(C)C)C(=O)N[C@@H](CC(=O)O)C(=O)N[C@@H](CCC(=O)O)C(=O)N[C@@H](CCCNC(=N)N)C(=O)N[C@@H](C)C(=O)N[C@@H](C)C(=O)NC(C)(C)C(=O)N[C@@H](CCC(=O)O)C(=O)N[C@@H](Cc1ccccc1)C(=O)N[C@H](C(=O)N[C@@H](CCC(N)=O)C(=O)N[C@@H](Cc1c[nH]c2ccccc12)C(=O)N[C@@H](CC(C)C)C(=O)N[C@@H](CC(C)C)C(=O)N[C@@H](CC(=O)O)C(=O)NCC(=O)NCC(=O)N1CCC[C@H]1C(=O)N[C@@H](CO)C(=O)N[C@@H](CO)C(=O)NCC(=O)N[C@@H](C)C(=O)N1CCC[C@H]1C(=O)N1CCC[C@H]1C(=O)N1CCC[C@H]1C(=O)N[C@@H](CO)C(N)=O)C(C)C)C(=O)O [compound 21] (H-H[Aib]QGTFTSDK([γGlu-Palmitoyl])SKYLDERAA[Aib]EFVQWLLDGGPSSGAPPPS-NH2; N-terminus assumed)	2	–	4	1	–
CCCCCCCCCCCCCCCC(=O)N[C@@H](CCC(=O)NCCCC[C@H](NC(=O)[C@H](CC(=O)O)NC(=O)[C@H](CO)NC(=O)[C@@H](NC(=O)[C@H](Cc1ccccc1)NC(=O)[C@@H](NC(=O)CNC(=O)[C@H](CCC(=O)O)NC(=O)C(C)(C)NC(=O)[C@@H](N)Cc1c[nH]cn1)[C@@H](C)O)[C@@H](C)O)C(=O)N[C@@H](CO)C(=O)N[C@@H](CCCCN)C(=O)N[C@@H](Cc1ccc(O)cc1)C(=O)N[C@@H](CC(C)C)C(=O)N[C@@H](CC(=O)O)C(=O)N[C@@H](CCC(=O)O)C(=O)N[C@@H](CCCNC(=N)N)C(=O)N[C@@H](C)C(=O)N[C@@H](C)C(=O)N[C@@H](CCC(N)=O)C(=O)N[C@@H](CC(=O)O)C(=O)N[C@@H](Cc1ccccc1)C(=O)N[C@H](C(=O)N[C@@H](CCC(N)=O)C(=O)N[C@@H](Cc1c[nH]c2ccccc12)C(=O)N[C@@H](CC(C)C)C(=O)N[C@@H](CC(C)C)C(=O)N[C@@H](CCC(=O)O)C(=O)NCC(=O)NCC(=O)N1CCC[C@H]1C(=O)N[C@@H](CO)C(=O)N[C@@H](CO)C(=O)NCC(=O)N[C@@H](C)C(=O)N1CCC[C@H]1C(=O)N1CCC[C@H]1C(=O)N1CCC[C@H]1C(=O)N[C@@H](CO)C(N)=O)C(C)C)C(=O)O [compound 44] (H-H[Aib]EGTFTSDK([γGlu-Palmitoyl])SKYLDERAAQDFVQWLLEGGPSSGAPPPS-NH2)	–	7	–	–	–
H-H[Aib]QGTFTSDYSKYLEERAAQDFVQWLLDGGPSSGAPPPSK([γGlu-γGlu-Palmitoyl])G-NH2 [compound 15]	–	3	–	–	EC50 ([1]; Table 1): 5 pM
H-H[Aib]QGTFTSEYSKYLDERAAQDFVQWLLDGGPSSGAPPPSK([γGlu-γGlu-Palmitoyl])G-NH2 [compound 16]	–	2	–	–	–
H[Aib]QGTFTSDYAKYLDERAAQDFVQWLLDGGPSSGAPPPSK([γGlu-γGlu-Palmitoyl])G-NH2 [compound 17]	–	8	–	–	EC50 ([3]; Table 1): 20 pM
